Data: patent US20080138299A1, “Oral Pharmaceuticals or Oral Hygiene Products Comprising Licorice Flavonoid Extract” (Hawley & Hazel (BVI) Company Limited, priority 2006, published 2008)

What was measured:
[1] = tested on: Actinomyces naeslundii (A. n) ATCC 12104; experiment: Broth micro-dilution MIC; assay type: cell-based; conditions: no unit in table; dilution series 250-0.12 mg/L, ceiling 250 ppm; 37 °C, 18-24 h; smaller = stronger
Text: (§1) 3. The Inhibition Experiment of Licochalone A and Total Flavonoid Extracts of Zhangguo Licorice (Glycyrrhiza inflate Betal) on Primary Oral Pathogenic Microorganisms 3.1 The Cultivation of the Bacteria Species: Streptococcus mutans (ATCC 25175), Actinomyces naeslundii (ATCC 12104), Actinobacillus actinomycetemicomtans (ATCC 43717), Porphyromonas gingivalis (ATCC 33277), Listed as Following:
(§2) A single colony is picked from the Trypticase Digested Soybean peptone agar blood plate (TSA5B) ordinarily stored bacteria species to Trypticase Digested Soybean peptone broth (TSB), cultivated in microaerobic environment (only P.g needs anaerobic cultivation) with 95% air, 5% CO2 at 37.0° C.±1.0° C., wherein S.m is cultivated for 18-24 h, and the remaining three are cultivated for 40-48 h. Then sterile TSB is used to adjust the turbidity of the bacteria suspension to 0.5^#McFarland standard, equivalent to 1.0×10^8 CFU/mL.
(§3) After performing a series of 2-fold dilutions to the anti-bacteria pharmaceuticals, rationally inoculate with tested bacteria, and observe after incubated at 37° C. for 18-24 h, wherein the lowest pharmaceutical concentration that inhibits the growth visible to the naked eye of the tested bacteria is the minimum inhibitive concentration (MIC) of the tested pharmaceuticals to the tested bacteria. The operating steps are:
(§4) a. Preparation of the stock solution of antibacterial pharmaceutical: Prepare 1% stock solution of various antibacterial pharmaceuticals dope with 100% pure ethanol as solvent. The prepared stock solution is filtered to eliminate bacteria, and is distributed into small portions to be used. b. Range of measured concentration: the present experiment chooses 250 ppm as the ceiling measured concentration of the anti-bacteria pharmaceutical. c. Measuring method: micro-dilution method.
(§5) First add 100 μL TSB to each hole of the 96-well plate, and add 100 μL sterile anti-bacteria pharmaceutical solution which is diluted 10-folds (1000 mg/l) to each hole of the first column, then blow on each hole of the first column repeatedly for 7-8 times using multi-channel micropipet, transfer 100 μL sample to the second column after sufficiently mixing the pharmaceutical with TSB, and after similarly blowing for 7-8 times, transfer 100 μL sample to the third column, and analogously to the last column, thus the concentration of pharmaceutical is 2-fold gradiently diluted, from 500 mg/L of the first column to 0.24 mg/L of the last column (the 12th column).
(§6) The bacteria to be tested and standard bacteria are prepared as above. Dilute the bacteria solution with TSB to a bacteria content of about 10^6 CFU/mL. Then inoculate 100 μL for each hole. Thus the final diluted concentration of the anti-bacteria pharmaceutical in each line are 250, 125, 62.5 . . . 0.12 mg/L, and the final inoculation quantity is about […] or 5×10^6 bacteria each hole; the 96-well plate is placed on a microshaker and is shook for 1 min to mix the solution in each hole. The microwell plate is covered and is sealed with adhesive paper to reduce the evaporation during the incubation process and is placed in a humid box, cultivated in microaerobic environment with 95% air, 5% CO2 (or in anaerobic environment with 90% N2, 5% H2, 5% CO2) at 37.0° C.±1.0° C. for 18-24 h. The 96-well plate is placed under an enzyme-labeling instrument, and by comparing the growing characteristics of the tested bacteria with the standard bacteria, the lowest anti-bacteria pharmaceutical concentration contained in the hole without bacteria is taken as MIC.

[2] = tested on: Porphyromonas gingivalis (P. g) ATCC 33277; experiment: Broth micro-dilution MIC; assay type: cell-based; conditions: no unit in table; dilution series 250-0.12 mg/L, ceiling 250 ppm; anaerobic, 37 °C, 18-24 h; smaller = stronger
Text: as §1, §2, §3, §4, §5, §6

[3] = tested on: Actinobacillus actinomycetemcomitans (A. a) ATCC 43717; experiment: Broth micro-dilution MIC; assay type: cell-based; conditions: no unit in table; dilution series 250-0.12 mg/L, ceiling 250 ppm; 37 °C, 18-24 h; smaller = stronger
Text: as §1, §2, §3, §4, §5, §6

[4] = tested on: Streptococcus mutans (S. m) ATCC 25175; experiment: Broth micro-dilution MIC; assay type: cell-based; conditions: no unit in table; dilution series 250-0.12 mg/L, ceiling 250 ppm; 37 °C, 18-24 h; smaller = stronger
Text: as §1, §2, §3, §4, §5, §6

IL-6 = experiment: KB cell Luminex liquid-phase chip analysis; assay type: cell-based, human; conditions: KB cell supernatant, higher = stronger, test concentration not given
Protocol: (§7) During the experiment, the KB cell inoculated in the cultivating plate is treated with or without (control) Licochalone A. After the treatment, the supernatant of the cultivated liquid is collected and stored in −80 C refrigerator. The PGE2 in the supernatant is detected by Enzyme-linked immunsorbent assay, and Luminex multifunctional liquid-phase chip analysis system is used for the detection of GM-CSF, TNF-α, IL-1β and IL-6 (the result is shown in Table 3).
(§8) The 96-well plate is enclosed for 30 min. The fluorescent microspheres are added into the 96-well plate after dilution. Add the standard sample and the sample to be measured, stay overnight at 4° C. In the next day, the supernatant is discarded, and 50 μl GM-CSF, TNF-α, IL-1β and IL-6 antibodies are added to each hole. After rinsing 4 times, the 96-well plate is placed in a shaking table under ambient temperature to shade from light for 1 h, rinse 4 times, and add PE labeled with streptavidin and shade from light for 15 min at room temperature. Rinse 4 times, the microspheres are suspended in the rinsing buffer, and the 96-well plate is immediately placed on Luminex (Luminex Corporation, Austin, Tx.) to analyze.

GM-CSF = experiment: KB cell Luminex liquid-phase chip analysis; assay type: cell-based, human; conditions: KB cell supernatant, higher = stronger, test concentration not given
Protocol: as §7, §8

IL-1β = experiment: KB cell Luminex liquid-phase chip analysis; assay type: cell-based, human; conditions: KB cell supernatant, higher = stronger, test concentration not given
Protocol: as §7, §8

TNF-α = experiment: KB cell Luminex liquid-phase chip analysis; assay type: cell-based, human; conditions: KB cell supernatant, higher = stronger, test concentration not given
Protocol: as §7, §8

Row | Compound | minimum inhibitive concentration (MIC), A. n [1] | minimum inhibitive concentration (MIC), P. g [2] | minimum inhibitive concentration (MIC), A. a [3] | minimum inhibitive concentration (MIC), S. m [4] | IL-6 (interleukin) (anti-inflammatory ability) (IL-6) [%] | GM-CSF (anti-inflammatory ability) (GM-CSF) [%] | IL-1β (interleukin) (anti-inflammatory ability) (IL-1β) [%] | TNF-α (Tumor Necrosis Factor) (anti-inflammatory ability) (TNF-α) [%]
1 | C=CC(C)(C)c1cc(/C=C/C(=O)c2ccc(O)cc2)c(OC)cc1O [Licochalone A, 5-(1,1-Dimethylallyl)-4,4′-dihydroxy-2-methoxychalcone] | 7.8 | 1.9 | >250 | 7.8 | 50 | 8 | 19 | 95
2 | Oc1cc(Cl)ccc1Oc1ccc(Cl)cc1Cl [Triclosan] | 3.9 | 7.8 | 1.9 | 3.9 | 31 | 5 | 7 | 81
